Patent publication US10988455B2, “1,2,4-triazine-4-amine derivatives” (Heptares Therapeutics Limited, priority 2010, dated 2021)

Tests used:
[1] = biological target: human adenosine A2a receptor (Homo sapiens (Human), UniProt P29274); test: HEK293-hA2a [3H]-ZM241385 binding assay (Test A); details: HEK293 membranes, 1 nM [3H]ZM241385, 25° C., 1 h
Method: (§1) All test compounds were prepared as a stock solution of 10 mM in 100% DMSO.

[2] = tested on: haloperidol-induced catalepsy in rats; test: Catalepsy reversal test (Test B); assay type: in vivo, Sprague-Dawley rats; details: dose of 1 mg/kg p.o., 120 min pre-test time
Method: The dopamine D2 receptor antagonist, haloperidol, induces Parkinsonism in humans and induces motor effects in rats such as catalepsy. There is considerable evidence that adenosine A2A receptor antagonists reverse haloperidol-induced motor effects in preclinical studies. […] The present study determines the ability of haloperidol-induced catalepsy in rats to be reversed by novel A2A receptor antagonists.
Haloperidol (0.82 mg/kg, i.p.; 150 min pre-test time) induces significant cataleptic behaviour in rats (average score 3.1). The effect of selected compounds of the invention (2-10 mg/kg or 0.3-3 mg/kg, p.o.; 120 min pre-test time) on catalepsy was established by administration of said compounds to rats pre-treated with haloperidol as described above.
Details of a similar test may be found in, for example, Hodgson et al., J. Pharmacol. Exp. Ther. 330, 2009.

[3] = biological target: human adenosine A1 receptor (Homo sapiens (Human), UniProt P30542); test: CHO-hA1 [3H]DPCPX binding assay (Test A); details: CHO membranes, 1 nM [3H]DPCPX, 25° C., 1 h
Method: as §1

Sequence of human adenosine A1 receptor (P30542 whole entry): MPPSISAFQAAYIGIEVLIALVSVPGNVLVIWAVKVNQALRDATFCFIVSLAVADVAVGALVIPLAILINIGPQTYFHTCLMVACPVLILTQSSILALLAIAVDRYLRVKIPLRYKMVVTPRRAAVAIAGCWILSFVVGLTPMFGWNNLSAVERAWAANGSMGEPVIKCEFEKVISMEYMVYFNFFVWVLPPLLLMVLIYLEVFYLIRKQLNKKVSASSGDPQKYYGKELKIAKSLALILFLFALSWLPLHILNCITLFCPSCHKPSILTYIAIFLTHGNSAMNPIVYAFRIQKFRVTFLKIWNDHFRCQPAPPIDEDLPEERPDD
Sequence of human adenosine A2a receptor (P29274 whole entry): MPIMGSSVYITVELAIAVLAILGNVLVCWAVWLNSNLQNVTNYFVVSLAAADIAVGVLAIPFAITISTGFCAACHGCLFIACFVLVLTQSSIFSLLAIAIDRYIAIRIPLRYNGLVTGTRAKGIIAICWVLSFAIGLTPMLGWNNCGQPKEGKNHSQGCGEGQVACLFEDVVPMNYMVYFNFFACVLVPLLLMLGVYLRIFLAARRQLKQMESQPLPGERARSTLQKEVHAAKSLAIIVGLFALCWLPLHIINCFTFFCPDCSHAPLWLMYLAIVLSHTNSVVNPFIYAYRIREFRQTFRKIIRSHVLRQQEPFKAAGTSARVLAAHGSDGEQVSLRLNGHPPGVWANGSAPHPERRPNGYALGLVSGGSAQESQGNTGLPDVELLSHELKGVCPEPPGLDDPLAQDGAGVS

pKi A2a [1]: 8.52
pKi A1 [3]: 8.05
SMILES: Cc1cc(-c2nnc(N)nc2-c2ccccc2)cc(N2CCC2)n1 [5(x), 6-[2-(Azetidin-1-yl)-6-methylpyridin-4-yl]-5-phenyl-1,2,4-triazin-3-amine]
reversal of cataleptic behavior in rats pre-treated with haloperidol [2]: statistically significant
